# Experimental data taken from US6646006B2, “Enhancement of vascular function by modulation of endogenous nitric oxide production or activity” (The Board of Trustees of the Leland Stanford Junior …, priority 1993, dated 2003).
# Tests used:
# human monocytes = experiment: Ex vivo binding of human monocytes to bEnd3 endothelial cells after oral L-arginine; assay type: in vivo
# Method: The control subject population in this study included 12 normal volunteers, (10 males and 2 females), with an average age of 37±2 yrs. Normalcy was determined by a careful history, physical examination, and laboratory analysis to exclude individuals with hematologic, renal, or hepatic dysfunction or clinically evident atherosclerosis. There were 20 patients (10 males and 10 females) with hypercholesterolemia as defined by a total plasma cholesterol greater than 240 mg/dl and a LDL cholesterol level greater than 160 mg/dl. […] None of the subjects were taking diuretics, vasoactive medications, antiplatelet or hypolipidemic medications. This study was approved by the Stanford University Administrative Panel on Human Subjects in Medical Research and each subject gave written informed consent before entry into the study. Blood was drawn from each subject in the postabsorptive state.
# We isolated human monocytes from citrated venous blood. The blood was centrifuged and the buffy coat removed and resuspended with HBSS. The suspension was then carefully layered onto a cushion of 1.068-d Histopaque, and centrifuged. After centrifugation, the monocytes were aspirated.
# We used the transformed endothelial cell (EC) line, bEnd3 to examine monocyte-endothelial binding ex vivo. The bEnd3 cells express endothelial adhesion molecules and bind monocytes in a cytokine-inducible fashion with kinetics similar to those observed with human umbilical vein endothelium. Monocytes were added to the wells containing the endothelial monolayers to reach a final cell number of 3×10^6/ml. In some studies, monocytes were exposed in vitro for 30 minutes to sodium nitroprusside (an NO donor) prior to the binding assay.
# The six-well plates were transferred to a rocking platform and rocked for 30 minutes at room temperature. After 30 minutes, the cell suspension was aspirated from each well and wells were then rinsed with binding buffer to remove nonadherent monocytes. Videomicroscopic counting of adherent cells was performed using a computer aided image analysis system.
# To confirm this effect of L-arginine treatment and to control for any experimental bias, a double-blinded, placebo-controlled, randomized study was performed. Ten hypercholesterolemic subjects were randomized (1:2) to placebo or L-arginine treatment; 6 normocholesterolemic individuals were studied in parallel to control for variation over time in the binding assay. At baseline, the adhesion of monocytes from both hypercholesterolemic groups was increased in comparison to the normocholesterolemic individuals (p<0.001). After 2 weeks of L-arginine administration, there was an absolute reduction of 53% in monocyte binding (n=7, p<0.005, baseline vs 2 weeks) (FIG. 11). By contrast, there was no significant change in the adhesiveness of monocytes isolated from hypercholesterolemic individuals treated with placebo.
# platelets = experiment: ADP-initiated platelet aggregation (nephelometry), platelets from treated rabbits; assay type: in vivo, rabbit
# Method: The effect of L-arginine supplementation on platelet reactivity in rabbits that had normal chow (Control; n=6), a 1% cholesterol diet (Chol; n=5), or a 1% cholesterol diet supplemented with oral arginine (Arg; n=6), as detailed above, was examined. Arterial blood obtained after central ear artery cannulation was anticoagulated with 13 mM sodium citrate. Platelet-rich suspension was prepared by washing platelets in calcium-free Krebs-Henseleit solution and resuspending them in Tyrode's solution with albumin. Aggregation was initiated by addition of adenosine diphosphate and monitored by standard nephelometric techniques. In platelets derived from Chol animals, aggregation was not different in rate or maximum extent in comparison to platelets from Control animals (A, in FIG. 2). By contrast, aggregation of platelets from Arg animals was reduced by 50% (B, in FIG. 2).
# Therefore, the anti-platelet effect of chronic oral arginine administration can be credited to an increased synthesis of endogenous NO. Furthermore, NO synthesis may be induced in both the platelets and the endothelium.
# [1] = system: hypercholesterolemic rabbits; experiment: Local intraluminal arginine after iliac artery angioplasty in cholesterol-fed rabbits; assay type: in vivo, rabbit; conditions: local infusion 6 mM, four weeks
# Excerpt: FIG. 8 is a histogram showing the effect of local-intraluminal administration of arginine on restenosis. Hypercholesterolemic rabbits had balloon angioplasty of the iliac artery. Immediately thereafter some animals received an infusion of arginine directly into the vessel by means of a catheter designed to apply high local concentrations of arginine to the vessel. Two to four weeks later, vessels were removed from the animals, and examined microscopically. Thickening of the vessel wall (internal thickening or “restenosis”) was reduced in the animals treated with intraluminal infusion of arginine (ARG) in comparison to those treated with vehicle. (See Ex. 12)
# To determine if intraluminal application of arginine to the vessel wall at the time of balloon angioplasty could inhibit lesion formation, the following study was performed. Rabbits (n=7) were fed a 1% cholesterol diet. After one week, angioplasty of the iliac arteries was performed. After angioplasty of one iliac artery, a local infusion catheter was used to expose the injured area to a high concentration of arginine (6 mM). The other iliac artery was subjected to balloon angioplasty, but not treated with a local infusion. After four weeks, the vessels were harvested, and segments of the arteries processed for histomorphometry.
# [2] = two weeks after discontinuation of L-arginine
compound,measurement,setting,value
N=C(N)NCCC[C@H](N)C(=O)O [L-arginine],adhesiveness of monocytes compared with normal subjects,human monocytes; after 2 weeks of arginine treatment,no different from those of the normal subjects
same,absolute reduction in monocyte binding,"human monocytes; double-blinded placebo-controlled, baseline vs 2 weeks, n=7",53%
same,decrease in monocyte adhesiveness,"human monocytes; open-label, 3 individuals, 2 weeks",38%
same,increase in binding vs that after 2 weeks of L-arginine therapy,human monocytes; [2],30±9%
same,increase in bound cells/hpf vs normocholesterolemic individuals,human monocytes; [2],34±9%
same,cGMP content in aggregated platelets,platelets; arginine-treated animals,two-fold greater
same,reduction of platelet aggregation,"platelets; platelets from Arg animals, adenosine diphosphate",50%
same,thickening of the vessel wall in arginine-treated vessels,[1],significantly reduced
